# Data reported in patent publication US9045491B2, “Thienyl [3,2-D] pyrimidin-4-one compounds, preparation method, pharmaceutical compositions and use thereof” (SHANGHAI INSTITUTE OF MATERIA MEDICA, CHINESE ACADEMY OF …, priority 2011, dated 2015).
# Values joined by “and” are separate entries in the source; they are usually repeats but may differ in a detail not shown here. Equal values may be shown once. “Also recorded” adds a separate entry of the source.
# Assay: Pharmacokinetics of DC291407 and metabolites in rats (LC-MS/MS)
# Assay type: in vivo, Sprague-Dawley (SD) rats
# Experimental: The concentration of metabolite M1 (4071001), metabolite M2 (407002) or metabolite M3 (407003) in plasma was determined by LC-MS/MS method after DC291407 was administrated to the rats through gavage and intravenous injection.
# The LC/MS/MS used is triple quadruple LC/MS 6460 from Agilent.
# Six healthy male Sprague-Dawley (SD) rats with the weight of 180-220 g were randomly divided into 2 groups. The rats in each group were administrated with the tested compound by gavage or intravenous injection, respectively.
# The compound was dissolved in 6.7% DMSO/6.7% Tween/86.6% normal saline.
# The rats fasted for 12 h and can drink water ad libitum. 2 h after dosing, the rats were provided with food all together. The time point for collecting blood samples and the sample processing are listed as follows.
# Intragastric administration: 0.25, 0.5, 1.0, 2.0, 3.0, 4.0, 6.0, 8.0 and 24 h after administration;
# Intravenous administration: 5 min, 0.25, 0.5, 1.0, 2.0, 4.0, 6.0, 8.0 and 24 h after administration. At above time point, 0.3 ml venous blood was taken from retrobulbar venous plexus of the rat and loaded into heparinization tube. After centrifuged at 11000 rpm for 5 min, the plasma was separated and frozen at −20° C. in a refrigerator.
# [1] = intravenous injection 10 mg/kg DC291407, average of 3 animals
# [2] = intravenous injection 10 mg/kg DC291407, individual animals, 10 mg/kg
# [3] = intravenous injection 10 mg/kg DC291407, time 0.083 h, average of 3 animals
# [4] = intravenous injection 10 mg/kg DC291407, time 0.083 h, individual animals, 10 mg/kg
# [5] = intravenous injection 10 mg/kg DC291407, time 0.25 h, average of 3 animals
# [6] = intravenous injection 10 mg/kg DC291407, time 0.25 h, individual animals, 10 mg/kg
# [7] = intravenous injection 10 mg/kg DC291407, time 0.50 h, average of 3 animals
# [8] = intravenous injection 10 mg/kg DC291407, time 0.50 h, individual animals, 10 mg/kg
# [9] = intravenous injection 10 mg/kg DC291407, time 1.0 h, average of 3 animals
# [10] = intravenous injection 10 mg/kg DC291407, time 1.0 h, individual animals, 10 mg/kg
# [11] = intravenous injection 10 mg/kg DC291407, time 2.0 h, average of 3 animals
# [12] = intravenous injection 10 mg/kg DC291407, time 2.0 h, individual animals, 10 mg/kg
# [13] = intravenous injection 10 mg/kg DC291407, time 4.0 h, individual animals, BLQ = below lower quantification
# [14] = intravenous injection 10 mg/kg DC291407, time 6.0 h, individual animals, BLQ = below lower quantification
# [15] = intravenous injection 10 mg/kg DC291407, time 8.0 h, individual animals, BLQ = below lower quantification
# [16] = intravenous injection 10 mg/kg DC291407, time 24 h, individual animals, BLQ = below lower quantification
structure (smiles),measurement,setting,value
COC(=O)c1cc2nc(N3CCCC(N)C3)n(Cc3ccccc3C#N)c(=O)c2s1 (stereo not drawn) [DC291407],metabolite M2 in plasma,intravenous 10 mg/kg DC291407,relatively low concentration
same,prototype compound in plasma,intravenous 10 mg/kg DC291407,relatively low concentration
same,metabolite M3 in plasma,"intravenous 10 mg/kg DC291407, 10 mg/kg",can not be detected; also recorded: no metabolite M3 can be detected
same,AUC0-t of metabolite M1,[1],22274 ng·h/mL
same,AUC0-t of prototype drug,[1],36.0 ng·h/mL
same,AUC0-∞ of metabolite M1,[1],22517 ng·h/mL
same,AUC0-∞ of prototype drug,[1],39.9 ng·h/mL
same,CL of prototype drug,[1],260 L/h/kg
same,Cmax of metabolite M1,[1],45028 ng/mL
same,MRT of metabolite M1,[1],67.8 min
same,MRT of prototype drug,[1],46.8 min
same,Tmax of metabolite M1,[1],4.98 min
same,Vss of prototype drug,[1],210 L/kg
same,t1/2 of metabolite M1,[1],738 min
same,t1/2 of prototype drug,[1],40.8 min
same,Tmax of metabolite M1,"intravenous injection 10 mg/kg DC291407, individual animals",4.98 min
same,AUC0-t of metabolite M1,[2],22692 ng·h/mL and 20658 ng·h/mL and 23472 ng·h/mL
same,AUC0-t of prototype drug,[2],42.4 ng·h/mL and 40.9 ng·h/mL and 24.8 ng·h/mL
same,AUC0-∞ of metabolite M1,[2],23114 ng·h/mL and 20834 ng·h/mL and 23603 ng·h/mL
same,AUC0-∞ of prototype drug,[2],45.9 ng·h/mL and 43.9 ng·h/mL and 29.8 ng·h/mL
same,CL of prototype drug,[2],218 L/h/kg and 228 L/h/kg and 335 L/h/kg
same,Cmax of metabolite M1,[2],39818 ng/mL and 41730 ng/mL and 53535 ng/mL
same,MRT of metabolite M1,[2],96 min and 60.6 min and 47.4 min
same,MRT of prototype drug,[2],40.8 min and 40.2 min and 58.8 min
same,Vss of prototype drug,[2],148 L/kg and 154 L/kg and 328 L/kg
same,t1/2 of metabolite M1,[2],1150 min and 551 min and 504 min
same,t1/2 of prototype drug,[2],30.6 min and 31.8 min and 60.6 min
same,Plasma concentration of metabolite M1,[3],45028 ng/mL
same,Plasma concentration of metabolite M2,[3],117 ng/mL
same,Plasma concentration of prototype compound,[3],59.2 ng/mL
same,Plasma concentration of metabolite M1,[4],39818 ng/mL and 41730 ng/mL and 53535 ng/mL
same,Plasma concentration of metabolite M2,[4],126 ng/mL and 209 ng/mL and 15.0 ng/mL
same,Plasma concentration of prototype compound,[4],63.4 ng/mL and 60.7 ng/mL and 53.4 ng/mL
same,Plasma concentration of metabolite M1,[5],29232 ng/mL
same,Plasma concentration of metabolite M2,[5],339 ng/mL
same,Plasma concentration of prototype compound,[5],34.8 ng/mL
same,Plasma concentration of metabolite M1,[6],28858 ng/mL and 29247 ng/mL and 29592 ng/mL
same,Plasma concentration of metabolite M2,[6],866 ng/mL and 132 ng/mL and 20.3 ng/mL
same,Plasma concentration of prototype compound,[6],49.7 ng/mL and 34.4 ng/mL and 20.3 ng/mL
same,Plasma concentration of metabolite M1,[7],9487 ng/mL
same,Plasma concentration of metabolite M2,[7],102 ng/mL
same,Plasma concentration of prototype compound,[7],23.0 ng/mL
same,Plasma concentration of metabolite M1,[8],11784 ng/mL and 7251 ng/mL and 9426 ng/mL
same,Plasma concentration of metabolite M2,[8],144 ng/mL and 153 ng/mL and 9.39 ng/mL
same,Plasma concentration of prototype compound,[8],27.4 ng/mL and 31.7 ng/mL and 9.72 ng/mL
same,Plasma concentration of metabolite M1,[9],4717 ng/mL
same,Plasma concentration of metabolite M2,[9],23.4 ng/mL
same,Plasma concentration of prototype compound,[9],9.9 ng/mL
same,Plasma concentration of metabolite M1,[10],5628 ng/mL and 4634 ng/mL and 3891 ng/mL
same,Plasma concentration of metabolite M2,[10],36.0 ng/mL and 30.9 ng/mL and 3.26 ng/mL
same,Plasma concentration of prototype compound,[10],11.3 ng/mL and 11.9 ng/mL and 6.61 ng/mL
same,Plasma concentration of metabolite M1,[11],310 ng/mL
same,Plasma concentration of prototype compound,[11],4.05 ng/mL
same,Plasma concentration of metabolite M1,[12],401 ng/mL and 214 ng/mL and 314.7 ng/mL
same,Plasma concentration of prototype compound,[12],4.75 ng/mL and 3.94 ng/mL and 3.44 ng/mL
same,Plasma concentration of metabolite M2,"intravenous injection 10 mg/kg DC291407, time 2.0 h, individual animals, BLQ = below lower quantification, 10 mg/kg",BLQ (2×) and 7.18 ng/mL
same,Plasma concentration of metabolite M1,"intravenous injection 10 mg/kg DC291407, time 4.0 h, average of 3 animals",69.7 ng/mL
same,Plasma concentration of metabolite M1,"intravenous injection 10 mg/kg DC291407, time 4.0 h, individual animals, 10 mg/kg",55.4 ng/mL and 68.1 ng/mL and 85.5 ng/mL
same,Plasma concentration of metabolite M2,[13],BLQ
same,Plasma concentration of prototype compound,[13],BLQ
same,Plasma concentration of metabolite M1,"intravenous injection 10 mg/kg DC291407, time 6.0 h, average of 3 animals",40.5 ng/mL
same,Plasma concentration of metabolite M1,"intravenous injection 10 mg/kg DC291407, time 6.0 h, individual animals, 10 mg/kg",30.9 ng/mL and 41.4 ng/mL and 49.3 ng/mL
same,Plasma concentration of metabolite M2,[14],BLQ
same,Plasma concentration of prototype compound,[14],BLQ
same,Plasma concentration of metabolite M1,"intravenous injection 10 mg/kg DC291407, time 8.0 h, average of 3 animals",37.3 ng/mL
same,Plasma concentration of metabolite M1,"intravenous injection 10 mg/kg DC291407, time 8.0 h, individual animals, 10 mg/kg",24.8 ng/mL and 48.5 ng/mL and 38.5 ng/mL
same,Plasma concentration of metabolite M2,[15],BLQ
same,Plasma concentration of prototype compound,[15],BLQ
same,Plasma concentration of metabolite M1,"intravenous injection 10 mg/kg DC291407, time 24 h, average of 3 animals",13.1 ng/mL
same,Plasma concentration of metabolite M1,"intravenous injection 10 mg/kg DC291407, time 24 h, individual animals, 10 mg/kg",15.2 ng/mL and 13.3 ng/mL and 10.8 ng/mL
same,Plasma concentration of metabolite M2,[16],BLQ
same,Plasma concentration of prototype compound,[16],BLQ
